According to PubChem BioAssay AID651989 (The Scripps Research Institute Molecular Screening Center, 2013):
Calls of active or inactive are those of the source. The rule behind the calls is not given here.

Target: methionyl-tRNA synthetase (Trypanosoma brucei brucei) (UniProt Q38C91)
Assay: T. brucei MetRS inhibitors, dose response, orthogonal assay for T. brucei MetRS inhibitor project, biochemical, fluorescence polarization (AID 651989)
Details: Fluorescence polarization biochemical MetRS inhibition

Sequence of methionyl-tRNA synthetase (Trypanosoma brucei brucei) (Q38C91 1-773): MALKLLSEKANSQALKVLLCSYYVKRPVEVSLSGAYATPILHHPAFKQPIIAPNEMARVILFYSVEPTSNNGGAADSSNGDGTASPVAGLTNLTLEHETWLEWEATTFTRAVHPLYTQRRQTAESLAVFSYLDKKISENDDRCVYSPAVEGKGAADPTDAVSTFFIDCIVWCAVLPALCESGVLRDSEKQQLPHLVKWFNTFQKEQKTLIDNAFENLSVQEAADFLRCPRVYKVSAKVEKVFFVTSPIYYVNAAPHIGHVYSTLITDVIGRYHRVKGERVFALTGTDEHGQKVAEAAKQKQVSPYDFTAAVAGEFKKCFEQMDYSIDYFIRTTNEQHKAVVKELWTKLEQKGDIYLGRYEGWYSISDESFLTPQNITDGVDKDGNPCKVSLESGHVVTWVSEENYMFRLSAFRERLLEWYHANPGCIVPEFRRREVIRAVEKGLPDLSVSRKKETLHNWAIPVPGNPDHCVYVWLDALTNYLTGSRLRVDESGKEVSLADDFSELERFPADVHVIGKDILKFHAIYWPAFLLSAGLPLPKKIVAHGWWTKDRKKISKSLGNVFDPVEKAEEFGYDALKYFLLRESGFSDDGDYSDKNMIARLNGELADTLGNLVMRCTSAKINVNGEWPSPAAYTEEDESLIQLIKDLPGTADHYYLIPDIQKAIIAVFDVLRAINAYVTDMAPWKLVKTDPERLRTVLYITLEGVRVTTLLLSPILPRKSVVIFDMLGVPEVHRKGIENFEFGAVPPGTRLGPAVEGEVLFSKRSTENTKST

O=C(Cc1ccc(Br)cc1)NNC(=O)Nc1ccc(Cl)cc1
IC50: > 119 µM (inactive)

N#Cc1ccccc1CSc1ccc(-c2nc3ccccc3[nH]2)cn1
IC50: > 119 µM (inactive)

O=C(NCc1cc(Br)cc(Br)c1OC(=O)c1ccccc1[N+](=O)[O-])c1ccccc1
IC50: > 119 µM (inactive)

COc1ccc(NC(=O)COC(=O)CCCOc2ccc(Cl)cc2Cl)cc1
IC50: > 119 µM (inactive)

N#Cc1ccccc1CSc1nc2ncc(Br)cc2[nH]1
IC50: > 119 µM (inactive)

CO/N=C(\c1nonc1N)N1CCN(c2ccc(Cl)cc2[N+](=O)[O-])CC1
IC50: > 119 µM (inactive)

Clc1ccccc1-c1ccc2ncnc(NCc3ccc4c(c3)OCO4)c2c1
IC50: inactive

O=C(OCC(=O)c1c[nH]c2ccccc12)c1ccc(OC(F)F)cc1
IC50: > 119 µM (inactive)

COc1cc(OC)c(OC)cc1/C=N/Nc1nc2ccccc2[nH]1
IC50: > 119 µM (inactive)

COc1ccc(CC(=O)OCC(=O)Nc2ccc(Br)cc2)cc1
IC50: > 119 µM (inactive)

Cc1cc(Cl)ccc1OCCCC(=O)NNC(=O)c1ccccc1O
IC50: > 119 µM (inactive)

Cc1cc2c(c(=O)n1CC1CCCO1)C(c1ccc3c(c1)OCO3)C(C#N)=C(N)O2 (stereo not drawn)
IC50: > 119 µM (inactive)

Cc1ccc(C(=O)Nn2c(O)c(C=C3N=c4ccccc4=N3)sc2=S)cc1
IC50: > 119 µM (inactive)
